The values that follow come from PMC12553813, “Converting Escherichia coli isochorismatase YecD into γ-lactamase” (Bioresources and Bioprocessing, 2025).

Each structure is given as a SMILES string.

Holding throughout (format): biochemical
Test [1] deals with YecD (Escherichia coli, UniProt P0ADI7, G134C, form not given). Description: hydrolysis kinetics, chiral HPLC. The note with it: standard assay: 50 mM Tris-HCl pH 8.0, 35 °C, racemic γ-lactam.
The target in another test is T1, RutB (Escherichia coli, UniProt P75897).
T1 sequence (P75897 1-230): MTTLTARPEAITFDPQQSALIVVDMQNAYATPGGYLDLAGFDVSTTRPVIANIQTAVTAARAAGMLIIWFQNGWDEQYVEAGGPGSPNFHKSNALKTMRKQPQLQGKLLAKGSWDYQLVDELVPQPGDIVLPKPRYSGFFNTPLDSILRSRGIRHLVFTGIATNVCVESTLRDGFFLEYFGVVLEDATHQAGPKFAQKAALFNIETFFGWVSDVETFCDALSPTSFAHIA
Description: γ-lactamase activity screen, chiral HPLC. Conditions: 50 mM Tris-HCl pH 8.0, 35 °C, 4.6 mM racemic γ-lactam.

Test [2] concerns the target YecD (Escherichia coli, UniProt P0ADI7, W104Y/G134C, form not given). The test is described as follows: hydrolysis kinetics, chiral HPLC. Conditions: standard assay: 50 mM Tris-HCl pH 8.0, 35 °C, racemic γ-lactam.
Test [3] deals with YecD (Escherichia coli, UniProt P0ADI7, V56A/G134C, form not given). The test is described as follows: hydrolysis kinetics, chiral HPLC. Conditions: standard assay: 50 mM Tris-HCl pH 8.0, 35 °C, racemic γ-lactam.
The target of test [4] is YecD (Escherichia coli, UniProt P0ADI7, V56I/W104E/G134C, form not given). The test is described as follows: hydrolysis kinetics, chiral HPLC. The note with it: standard assay: 50 mM Tris-HCl pH 8.0, 35 °C, racemic γ-lactam.
Test [5] deals with YecD (Escherichia coli, UniProt P0ADI7, W104A/G134C, form not given). Description: hydrolysis kinetics, chiral HPLC. The note with it: standard assay: 50 mM Tris-HCl pH 8.0, 35 °C, racemic γ-lactam.
Test [6] deals with YecD (Escherichia coli, UniProt P0ADI7, F23A/G134C, form not given). The test is described as follows: hydrolysis kinetics, chiral HPLC. The note with it: standard assay: 50 mM Tris-HCl pH 8.0, 35 °C, racemic γ-lactam.
Test [7] has as its target YecD (Escherichia coli, UniProt P0ADI7, W104F/G134C, form not given). The test is described as follows: hydrolysis kinetics, chiral HPLC. The note with it: standard assay: 50 mM Tris-HCl pH 8.0, 35 °C, racemic γ-lactam.

Sequence of YecD (Escherichia coli, UniProt P0ADI7, W104Y/G134C, form not given) (P0ADI7 whole entry W104Y/G134C, form open): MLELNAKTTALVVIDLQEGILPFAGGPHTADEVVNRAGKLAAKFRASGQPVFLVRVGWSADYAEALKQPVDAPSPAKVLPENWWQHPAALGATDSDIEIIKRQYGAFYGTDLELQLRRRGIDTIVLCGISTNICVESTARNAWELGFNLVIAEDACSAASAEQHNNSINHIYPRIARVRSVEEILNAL
Sequence of YecD (Escherichia coli, UniProt P0ADI7, V56A/G134C, form not given) (P0ADI7 whole entry V56A/G134C, form open): as the sequence (P0ADI7 whole entry W104Y/G134C, form open) above, with V56A, Y104W counted along it
Sequence of YecD (Escherichia coli, UniProt P0ADI7, F23A/G134C, form not given) (P0ADI7 whole entry F23A/G134C, form open): as the sequence (P0ADI7 whole entry W104Y/G134C, form open) above, with F23A, Y104W counted along it
Sequence of YecD (Escherichia coli, UniProt P0ADI7, G134C, form not given) (P0ADI7 whole entry G134C, form open): as the sequence (P0ADI7 whole entry W104Y/G134C, form open) above, with Y104W counted along it
Sequence of YecD (Escherichia coli, UniProt P0ADI7, V56I/W104E/G134C, form not given) (P0ADI7 whole entry V56I/W104E/G134C, form open): as the sequence (P0ADI7 whole entry W104Y/G134C, form open) above, with V56I, Y104E counted along it
Sequence of YecD (Escherichia coli, UniProt P0ADI7, W104A/G134C, form not given) (P0ADI7 whole entry W104A/G134C, form open): as the sequence (P0ADI7 whole entry W104Y/G134C, form open) above, with Y104A counted along it
Sequence of YecD (Escherichia coli, UniProt P0ADI7, W104F/G134C, form not given) (P0ADI7 whole entry W104F/G134C, form open): as the sequence (P0ADI7 whole entry W104Y/G134C, form open) above, with Y104F counted along it

The Km is the substrate concentration at which the rate is half of its maximum. Consider `O=C1N[C@@H]2C=C[C@H]1C2` (racemic) [( +) γ-lactam, 2-azabicyclo [2.2.1] hept-5-en-3-one], for which the Km at YecD [1] was 72 ± 4 mM; at YecD [2], 36 ± 3 mM; at YecD [3], 70 ± 3 mM; at YecD [4], 16 ± 2 mM; on YecD [5], 79 ± 3 mM; on YecD [6], 67 ± 4 mM. Besides, the Michaelis-Menten constant (Km) on YecD [7] worked out at 74 ± 3 mM. For the same molecule, on RutB, the “γ-lactamase activity screen, chiral HPLC” value is reported as “Screening for ( +) γ-lactamase activity revealed that only RutB exhibited this catalytic function”.
